Results: paper PMC4418665, “Cyclization of the Urokinase Receptor-Derived Ser-Arg-Ser-Arg-Tyr Peptide Generates a Potent Inhibitor of Trans-Endothelial Migration of Monocytes” (PLoS ONE, 2015)
Peptide text beside a SMILES is read from it.

Tests used:
[1] = test system: THP-1 cells; format: cell-based, human; details: 10 nM peptide, 90 minutes, Boyden chamber
Description: The ability of [SRSRY] peptide to affect THP-1 cell migration was analyzed in Boyden chambers using 10 nM fMLF or 10 nM SRSRY as chemoattractants. […] Inhibitory effect of [SRSRY] is dose-dependent, it starts in the high fM range, it seems to level off in the μM range and reaches an overall 50% reduction at 10 pM (Fig 4B). […] The mechanisms by which monocytes move when subjected to a chemoattractant gradient, involve changes in cytoskeletal organization, which provide both protrusive and contractile forces necessary for cell migration. To gain some insights into the cellular effects exerted by peptide [SRSRY], PMA-differentiated THP-1 cells were grown adherent onto a glass slide, exposed to diluents (CTL), 10 nM fMLF gradient plus/minus 10 nM [SRSRY] or 10 nM [RSSYR] in a DUNN chamber for 6 hours as described, and then stained with rhodamine-phalloidin. A total of 100 cells/sample that translocated to the area corresponding to the ring separating the inner and outer chambers were counted and their cytoskeletal organization examined with a fluorescence-inverted microscope. […] Conversely, the addition of peptide [SRSRY] to the fMLF gradient reduced cell elongation and alignment with the appearance of F-actin linear distribution along the plasma membranes in the 60% of cell population (Fig 4C). In order to verify whether the inhibitory effect of [SRSRY] also occurs on primary monocytes and/or macrophages, human monocytes and macrophages were subjected to cell migration assays in Boyden and DUNN chambers, respectively. […] Unlike [RSSYR], 10 nM [SRSRY] reduced both fMLF- and SRSRY- directed monocyte migration by 50% and 49%, respectively. Next, primary macrophages were subjected to cell migration assay in DUNN chamber as above described. After 6 hours incubation, a total of 100 cells/sample that translocated to the area corresponding to the ring separating the inner and outer chambers were counted. Macrophage exposure to 10 nM fMLF elicited a considerable cell migration, reaching 230% of the basal cell migration (CTL), that was unchanged by 10 nM [[…]). […] These findings indicate that unlike linear SRSRY, the cyclic form of the chemotactic sequence of uPAR inhibits monocyte motility and prevents cytoskeletal re-organization occurring during migration of macrophages. {[…]] inhibits migration of monocytes and macrophages in a dose-dependent manner causing a marked inhibition of fMLF-dependent cytoskeletal re-organization. A. THP-1 cells (1x10^5 cells/well) were allowed to migrate for 90 minutes at 37°C, 5% CO2 in Boyden chambers toward 10 nM fMLF, or 10 nM SRSRY in the presence of diluents (None), 10 nM [RSSYR] or 10 nM [SRSRY]. […] Data are expressed as the means ± SD of three independent experiments, performed in duplicate. *Statistical significance against None with p<0.001. B. THP-1 and PMA-stimulated THP-1 cell migration toward 10 nM fMLF plus increasing concentrations of [SRSRY] in Boyden chambers. The extent of cell migration was expressed as a percentage of the net fMLF-dependent cell migration, considered as 100%. Data are expressed as the means ± SD of three independent experiments, performed in duplicate. C. Representative images of PMA-stimulated THP-1 cells allowed to migrate in a DUNN chamber toward diluents (CTL), or a fMLF chemotactic gradient, in the absence (None) or presence of 10 nM [SRSRY] or [RSSYR] peptides and stained with rhodamine-phalloidin. Scale bar: 10 μm. Original magnifications: 630x. D-E. Primary monocytes (1x10^5 cells/well) were allowed to migrate for 90 minutes at 37°C, 5% CO2 in Boyden chambers toward 10 nM fMLF (D), or 10 nM […]) in the presence of diluents (None), 10 nM [RSSYR] or 10 nM [SRSRY]. […] Data are expressed as the means ± SD of three independent experiments, performed in duplicate. *Statistical significance against None with p<0.001; **Statistical significance against None with p<0.0001. […]

[2] = test system: primary macrophages; experiment: Primary macrophage migration in DUNN chamber; format: cell-based, human; details: 10 nM peptide added to 10 nM fMLF gradient, 6 hours
Description: The ability of [SRSRY] peptide to affect THP-1 cell migration was analyzed in Boyden chambers using 10 nM fMLF or 10 nM SRSRY as chemoattractants. […] Inhibitory effect of [SRSRY] is dose-dependent, it starts in the high fM range, it seems to level off in the μM range and reaches an overall 50% reduction at 10 pM (Fig 4B). […] The mechanisms by which monocytes move when subjected to a chemoattractant gradient, involve changes in cytoskeletal organization, which provide both protrusive and contractile forces necessary for cell migration. […] A total of 100 cells/sample that translocated to the area corresponding to the ring separating the inner and outer chambers were counted and their cytoskeletal organization examined with a fluorescence-inverted microscope. […] After 6 hours incubation, a total of 100 cells/sample that translocated to the area corresponding to the ring separating the inner and outer chambers were counted. […] Data are expressed as the means ± SD of three independent experiments, performed in duplicate. *Statistical significance against None with p<0.001. […] The extent of cell migration was expressed as a percentage of the net fMLF-dependent cell migration, considered as 100%. Data are expressed as the means ± SD of three independent experiments, performed in duplicate. […]

[3] = molecular target: T1, FPR1 (Homo sapiens, UniProt P21462); experiment: Agonist-induced FPR1 internalization at 37°C, fluorescence microscopy, THP-1 cells; format: cell-based; parameters: host or cells: THP-1 human monocytic leukemia cells; details: excess (100 nM) unlabelled peptide 30 min at 37°C, then 10 nM FITC-fMLF 30 min at 37°C
T1 sequence (P21462 1-350): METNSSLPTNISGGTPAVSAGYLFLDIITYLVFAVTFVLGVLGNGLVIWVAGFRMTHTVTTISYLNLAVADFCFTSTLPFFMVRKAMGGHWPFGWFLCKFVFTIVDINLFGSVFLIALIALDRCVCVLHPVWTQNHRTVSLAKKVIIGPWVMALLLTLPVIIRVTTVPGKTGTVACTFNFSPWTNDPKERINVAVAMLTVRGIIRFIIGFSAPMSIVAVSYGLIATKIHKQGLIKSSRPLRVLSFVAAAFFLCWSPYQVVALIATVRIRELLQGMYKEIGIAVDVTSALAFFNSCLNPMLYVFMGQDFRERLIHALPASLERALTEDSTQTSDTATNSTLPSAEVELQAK
Description: Once documented that both SRSRY and [SRSRY] peptides compete with fMLF for binding to FPR1, we investigated the effect of [SRSRY] on the motility of monocytes. Preliminarily, we assessed whether [SRSRY] is a ligand of FPR1 on monocyte cell surface. […] (Fig 3A). When binding experiments were performed at 37°C, FPR1 appeared mainly localized within the cytoplasm, adjacent but outside the nucleus of THP-1 cells.
Fig 3 The peptide [SRSRY] binds to FPR1 on THP-1 cell surface. A. THP-1 cells (1.5 x10^6 cells/sample) were pre-incubated with diluents (None), 100 nM fMLF, 100 nM SRSRY or 100 nM [SRSRY] peptides for 60 minutes at 4°C, then exposed to 10 nM N-formyl-Nle-Leu-Phe-Nle-Tyr-Lys-fluorescein (FITC-fMLF) for additional 60 minutes at 4°C. Fluorimetric measurement of cell-associated fluorescence was assed using 485 nm excitation and 535 nm emission filters. Data are expressed as a percentage of the fluorescence associated to THP-1 cells exposed to FITC-fMLF alone (None = 100%) and represent a mean ± SD from triplicates. *Statistical significance (t-test) against None with p<0.001. B. THP-1 cells incubated with diluents (None), 100 nM fMLF, 100 nM SRSRY or 100 nM [SRSRY] peptides for 30 minutes at 37°C and exposed to 10 nM FITC-fMLF for additional 30 minutes at 37°C. Scale bar: 5 μm. Original magnifications: 630x. […]

For `N=C(N)NCCC[C@@H]1NC(=O)[C@H](CCCNC(=N)N)NC(=O)[C@H](Cc2ccc(O)cc2)NC(=O)[C@H](CO)NC(=O)[C@H](CO)NC1=O` [[RSSYR], [Arg-Ser-Ser-Tyr-Arg]] (cyclo(RRSSY)), the “reduction of THP-1 monocyte migration toward 10 nM SRSRY” value [1] was “did not exert any effect”, the “reduction of THP-1 monocyte migration toward 10 nM fMLF” value [1] was “did not exert any effect” and the “effect on fMLF-directed migration of primary macrophages” value [2] was “unchanged”. The “internalization of fluorescent agonist in THP-1 cells” value [3] was “did not exert such effect”.
